These results are taken from ChEMBL document CHEMBL1159164, “Inactivation of serine protease, -chymotrypsin by fluorinated phenylalanine analogues” (Bioorg Med Chem Lett, 1996).

Experiment [1] has as its target T1, Chymotrypsinogen B (Homo sapiens, UniProt P17538). Put plainly: Reversible inhibitory activity toward alpha-chymotrypsin (5 nM concentration) at a pH of 7.8 by progress curve method.
Experiment [2] concerns the target T1, Chymotrypsinogen B. The experiment in a line: Time dependent loss of inhibitory activity toward alpha-chymotrypsin (1.6 uM concentration) at a pH of 7.8 by incubation method; no inactivation observed.
In experiment [3] the target is T1, Chymotrypsinogen B. Put plainly: Irreversible inhibitory activity toward alpha-chymotrypsin (1.6 uM concentration) at a pH of 7.8 by incubation method. reversible competitive inactivation.
In experiment [4] the target is T1, Chymotrypsinogen B.
Experiment [5] concerns the target T1, Chymotrypsinogen B. The source holds these as a separate data set.
Experiment [6] addresses T1, Chymotrypsinogen B. Put plainly: Reversible inhibitory activity toward alpha-chymotrypsin (5 nM concentration) at a pH of 7.8 by progress curve method; no inactivation observed.
Experiment [7] addresses T1, Chymotrypsinogen B. The experiment in a line: Irreversible inhibitory activity toward alpha-chymotrypsin (1.6 uM concentration) at a pH of 7.8 by incubation method.
In experiment [8] the target is T1, Chymotrypsinogen B. The experiment in a line: Reversible inhibitory activity toward alpha-chymotrypsin (5 nM concentration) at a pH of 7.8 by progress curve method.; no inactivation observed.

T1 sequence (P17538 34-164 limits assumed, other chains not shown): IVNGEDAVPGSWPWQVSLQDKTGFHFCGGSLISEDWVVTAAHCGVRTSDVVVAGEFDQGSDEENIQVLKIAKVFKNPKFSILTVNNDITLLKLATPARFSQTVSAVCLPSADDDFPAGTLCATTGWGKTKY
T1 sequence (P17538 167-263 limits assumed, other chains not shown): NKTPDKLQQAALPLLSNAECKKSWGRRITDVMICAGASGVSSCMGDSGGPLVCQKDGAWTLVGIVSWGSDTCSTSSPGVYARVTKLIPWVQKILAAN

For `COC(=O)C(F)[C@H](Cc1ccccc1)NC(C)=O` (stereo in doubt; anti) [listing 1 of 2 here], the Ki on Chymotrypsinogen B [1] came to 6.44 mM.

`COC(=O)C(F)[C@H](Cc1ccccc1)NC(C)=O` (stereo in doubt; syn) [listing 1 of 2 here]: on Chymotrypsinogen B [2], the “K obs / 1” value is “No inactivation”. Besides, the [I] on Chymotrypsinogen B [3] came to 4.58 mM.

Turning to `C=CC(F)(F)[C@H](Cc1ccccc1)NC(C)=O`, the Ki at Chymotrypsinogen B [1] is 0.46 mM. At Chymotrypsinogen B [4], the [I] was determined as 8.7 mM.

Take `COC(=O)C(F)(F)[C@H](Cc1ccccc1)NC(C)=O`: the “K obs / 1” value on Chymotrypsinogen B [5] is “No inactivation”. The Ki on Chymotrypsinogen B [1] stood at 0.034 mM. Moreover, on Chymotrypsinogen B [3], the [I] was 6.86 mM.

As for `C=CC(F)[C@H](Cc1ccccc1)NC(C)=O` (some centres not stated), the Ki result on Chymotrypsinogen B [6] is reported as “No inactivation”. The “K obs / 1” value at Chymotrypsinogen B [2] is “No inactivation”. The [I] at Chymotrypsinogen B [7] was determined as 9.73 mM.

With `COC(=O)C(F)[C@H](Cc1ccccc1)NC(C)=O` (stereo in doubt; anti) [listing 2 of 2 here], the “K obs / 1” value at Chymotrypsinogen B [2] is “No inactivation”. Besides, at Chymotrypsinogen B [3], the [I] was 6.25 mM.

For `CC(=O)N[C@@H](Cc1ccccc1)C(C)(F)F`, the Ki result on Chymotrypsinogen B [8] was “No inactivation”. Moreover, the “K obs / 1” value on Chymotrypsinogen B [2] is “No inactivation”. Moreover, the [I] on Chymotrypsinogen B [7] came to 4.85 mM.

In the case of `COC(=O)C(F)[C@H](Cc1ccccc1)NC(C)=O` (stereo in doubt; syn) [listing 2 of 2 here], the Ki at Chymotrypsinogen B [1] turned out to be 19.1 mM.
